According to patent US20100041089A1, “IMPROVED METHOD FOR DETECTING CHEMICAL […]” (priority 2006, published 2010):

Test system: yeast genes (expressed mRNA)
Assay: DNA chip measurement of expressed mRNA of yeast genes after culture with a toxic chemical substance
Format: cell-based, Saccharomyces cerevisiae S288C
How it was run: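 S. cerevisiae S288C grown at 25 °C in YPD, exposed in log phase for 2 h to a toxicant at growth-inhibiting, non-lethal concentration. Cy3/Cy5-labelled cDNA from poly(A) mRNA hybridized to whole-genome chip at 65 °C >12 h. Ratio to untreated control, ≥2 significant.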

C[S+](C)[O-] [(15), Dimethyl sulfoxide]
The level of expressed mRNA in the presence of chemical substance/The level of expressed mRNA in the absence of chemical substance (yeast gene YJL152W, cultured two hours with substance): 0.8
The level of expressed mRNA in the presence of chemical substance/The level of expressed mRNA in the absence of chemical substance (yeast gene YJL186W, cultured two hours with substance): 2.5
level of expressed mRNA in the presence of chemical substance / level in the absence of chemical substance (yeast gene YJR030C, cultured two hours with the chemical substance): 0.8
The level of expressed mRNA in the presence of chemical substance/The level of expressed mRNA in the absence of chemical substance (yeast gene YJR074W, cultured two hours with substance): 3.4
level of expressed mRNA in the presence of chemical substance / level in the absence of chemical substance (yeast gene YKL051W, cultured two hours with the chemical substance): 1.5
level of expressed mRNA in the presence of chemical substance / level in the absence of chemical substance (yeast gene YKL097C, cultured two hours with the chemical substance): 0.8
level of expressed mRNA in the presence of chemical substance / level in the absence of chemical substance (yeast gene YKL100C, cultured two hours with the chemical substance): 1.7
level of expressed mRNA in the presence of chemical substance / level in the absence of chemical substance (yeast gene YKR040C, cultured two hours with the chemical substance): 1.1
The level of expressed mRNA in the presence of chemical substance/The level of expressed mRNA in the absence of chemical substance (yeast gene YKR046C, cultured two hours with substance): 2.9
The level of expressed mRNA in the presence of chemical substance/The level of expressed mRNA in the absence of chemical substance (yeast gene YLR041W, cultured two hours with the chemical substance): 1.3
The level of expressed mRNA in the presence of chemical substance/The level of expressed mRNA in the absence of chemical substance (yeast gene YLR132C, cultured two hours with substance): 2.3
The level of expressed mRNA in the presence of chemical substance/The level of expressed mRNA in the absence of chemical substance (yeast gene YLR149C, cultured two hours with substance): 1.3
The level of expressed mRNA in the presence of chemical substance/The level of expressed mRNA in the absence of chemical substance (yeast gene YLR151C, cultured two hours with the substance): 0.7
The level of expressed mRNA in the presence of chemical substance/The level of expressed mRNA in the absence of chemical substance (yeast gene YLR152C, cultured two hours with substance): 0.8
The level of expressed mRNA in the presence of chemical substance/The level of expressed mRNA in the absence of chemical substance (yeast gene YLR205C, cultured two hours with substance): 2.5
level of expressed mRNA in the presence of chemical substance / level in the absence of chemical substance (yeast gene YLR226W, cultured two hours with the chemical substance): 1.3
The level of expressed mRNA in the presence of chemical substance/The level of expressed mRNA in the absence of chemical substance (yeast gene YLR304C, mitochondria-located protein gene, cultured two hours with substance): 1.6
The level of expressed mRNA in the presence of chemical substance/The level of expressed mRNA in the absence of chemical substance (yeast gene YLR307W): 3.9
level of expressed mRNA in the presence of chemical substance / level in the absence of chemical substance (yeast gene YLR338W, cultured two hours with the chemical substance): 1.5
The level of expressed mRNA in the presence of chemical substance/The level of expressed mRNA in the absence of chemical substance (yeast gene YLR391W): 3.9
level of expressed mRNA in the presence of chemical substance / level in the absence of chemical substance (yeast gene YLR392C, cultured two hours with the chemical substance): 0.5
The level of expressed mRNA in the presence of chemical substance/The level of expressed mRNA in the absence of chemical substance (yeast gene YLR395C, mitochondria-located protein gene, cultured two hours with substance): 0.4
level of expressed mRNA in the presence of chemical substance / level in the absence of chemical substance (yeast gene YLR415C, cultured two hours with the chemical substance): 1.0
level of expressed mRNA in the presence of chemical substance / level in the absence of chemical substance (yeast gene YLR427W, cultured two hours with the chemical substance): 0.8
The level of expressed mRNA in the presence of chemical substance/The level of expressed mRNA in the absence of chemical substance (yeast gene YLR444C, cultured two hours with the substance): 1.3
level of expressed mRNA in the presence of chemical substance / level in the absence of chemical substance (yeast gene YML013W, cultured two hours with the chemical substance): 2.2
level of expressed mRNA in the presence of chemical substance / level in the absence of chemical substance (yeast gene YML029W, cultured two hours with the chemical substance): 0.8
level of expressed mRNA in the presence of chemical substance / level in the absence of chemical substance (yeast gene YML041C, cultured two hours with the chemical substance): 1.0
level of expressed mRNA in the presence of chemical substance / level in the absence of chemical substance (yeast gene YML079W, cultured two hours with the chemical substance): 0.3
The level of expressed mRNA in the presence of chemical substance/The level of expressed mRNA in the absence of chemical substance (yeast gene YML128C, cultured two hours with substance): 2.6
The level of expressed mRNA in the presence of chemical substance/The level of expressed mRNA in the absence of chemical substance (yeast gene YMR031C, cultured two hours with the substance): 0.7
level of expressed mRNA in the presence of chemical substance / level in the absence of chemical substance (yeast gene YMR068W, cultured two hours with the chemical substance): 2.2
level of expressed mRNA in the presence of chemical substance / level in the absence of chemical substance (yeast gene YMR071C, cultured two hours with the chemical substance): 0.8
The level of expressed mRNA in the presence of chemical substance/The level of expressed mRNA in the absence of chemical substance (yeast gene YMR083W, mitochondria-located protein gene, cultured two hours with substance): 1.3
The level of expressed mRNA in the presence of chemical substance/The level of expressed mRNA in the absence of chemical substance (yeast gene YMR090W, cultured two hours with substance): 1.9
level of expressed mRNA in the presence of chemical substance / level in the absence of chemical substance (yeast gene YMR160W, cultured two hours with the chemical substance): 1.5
level of expressed mRNA in the presence of chemical substance / level in the absence of chemical substance (yeast gene YNL026W, cultured two hours with the chemical substance): 0.8
level of expressed mRNA in the presence of chemical substance / level in the absence of chemical substance (yeast gene YNL058C, cultured two hours with the chemical substance): 2.2
level of expressed mRNA in the presence of chemical substance / level in the absence of chemical substance (yeast gene YNL063W, cultured two hours with the chemical substance): 0.7
level of expressed mRNA in the presence of chemical substance / level in the absence of chemical substance (yeast gene YNL176C, cultured two hours with the chemical substance): 0.8
level of expressed mRNA in the presence of chemical substance / level in the absence of chemical substance (yeast gene YNL194C, cultured two hours with the chemical substance): 0.5
level of expressed mRNA in the presence of chemical substance / level in the absence of chemical substance (yeast gene YNL200C, cultured two hours with the chemical substance): 0.8
The level of expressed mRNA in the presence of chemical substance/The level of expressed mRNA in the absence of chemical substance (yeast gene YNL241C, cultured for two hours with substance): 7.0
level of expressed mRNA in the presence of chemical substance / level in the absence of chemical substance (yeast gene YNL253W, cultured two hours with the chemical substance): 0.5
level of expressed mRNA in the presence of chemical substance / level in the absence of chemical substance (yeast gene YNL276C, cultured two hours with the chemical substance): 0.5
level of expressed mRNA in the presence of chemical substance / level in the absence of chemical substance (yeast gene YNR051C, cultured two hours with the chemical substance): 1.2
The level of expressed mRNA in the presence of chemical substance/The level of expressed mRNA in the absence of chemical substance (yeast gene YNR074C, cultured two hours with substance): 0.8
level of expressed mRNA in the presence of chemical substance / level in the absence of chemical substance (yeast gene YOL026C, cultured two hours with the chemical substance): 0.9
The level of expressed mRNA in the presence of chemical substance/The level of expressed mRNA in the absence of chemical substance (yeast gene YOR007C, cultured two hours with substance): 1.3
level of expressed mRNA in the presence of chemical substance / level in the absence of chemical substance (yeast gene YOR022C, cultured two hours with the chemical substance): 0.8
The level of expressed mRNA in the presence of chemical substance/The level of expressed mRNA in the absence of chemical substance (yeast gene YOR049C, cultured two hours with substance): 1.3
level of expressed mRNA in the presence of chemical substance / level in the absence of chemical substance (yeast gene YOR087W, cultured two hours with the chemical substance): 0.8
level of expressed mRNA in the presence of chemical substance / level in the absence of chemical substance (yeast gene YOR138C, cultured two hours with the chemical substance): 1.0
The level of expressed mRNA in the presence of chemical substance/The level of expressed mRNA in the absence of chemical substance (yeast gene YOR152C, cultured two hours with substance): 3.6
The level of expressed mRNA in the presence of chemical substance/The level of expressed mRNA in the absence of chemical substance (yeast gene YOR187W, mitochondria-located protein gene, cultured two hours with substance): 1.3
The level of expressed mRNA in the presence of chemical substance/The level of expressed mRNA in the absence of chemical substance (yeast gene YOR215C, cultured two hours with substance): 0.8
The level of expressed mRNA in the presence of chemical substance/The level of expressed mRNA in the absence of chemical substance (yeast gene YOR248W, cultured two hours with substance): 8.8
level of expressed mRNA in the presence of chemical substance / level in the absence of chemical substance (yeast gene YOR253W, cultured two hours with the chemical substance): 1.1
level of expressed mRNA in the presence of chemical substance / level in the absence of chemical substance (yeast gene YOR267C, cultured two hours with the chemical substance): 1.3
level of expressed mRNA in the presence of chemical substance / level in the absence of chemical substance (yeast gene YOR325W, cultured two hours with the chemical substance): 0.7
The level of expressed mRNA in the presence of chemical substance/The level of expressed mRNA in the absence of chemical substance (yeast gene YOR382W, cultured two hours with substance): 2.1
The level of expressed mRNA in the presence of chemical substance/The level of expressed mRNA in the absence of chemical substance (yeast gene YOR386W, mitochondria-located protein gene, cultured two hours with substance): 1.3
level of expressed mRNA in the presence of chemical substance / level in the absence of chemical substance (yeast gene YPL005W, cultured two hours with the chemical substance): 1.2
The level of expressed mRNA in the presence of chemical substance/The level of expressed mRNA in the absence of chemical substance (yeast gene YPL087W, cultured two hours with substance): 1.3
level of expressed mRNA in the presence of chemical substance / level in the absence of chemical substance (yeast gene YPL150W, cultured two hours with the chemical substance): 1.1
level of expressed mRNA in the presence of chemical substance / level in the absence of chemical substance (yeast gene YPL152W, cultured two hours with the chemical substance): 2.3
level of expressed mRNA in the presence of chemical substance / level in the absence of chemical substance (yeast gene YPL168W, cultured two hours with the chemical substance): 0.8
level of expressed mRNA in the presence of chemical substance / level in the absence of chemical substance (yeast gene YPL180W, cultured two hours with the chemical substance): 0.7
level of expressed mRNA in the presence of chemical substance / level in the absence of chemical substance (yeast gene YPL188W, cultured two hours with the chemical substance): 0.8
The level of expressed mRNA in the presence of chemical substance/The level of expressed mRNA in the absence of chemical substance (yeast gene YPL206C, cultured two hours with substance): 0.8
level of expressed mRNA in the presence of chemical substance / level in the absence of chemical substance (yeast gene YPL221W, cultured two hours with the chemical substance): 1.0
level of expressed mRNA in the presence of chemical substance / level in the absence of chemical substance (yeast gene YPL225W, cultured two hours with the chemical substance): 0.9
The level of expressed mRNA in the presence of chemical substance/The level of expressed mRNA in the absence of chemical substance (yeast gene YPR014C, cultured two hours with the substance): 0.9
The level of expressed mRNA in the presence of chemical substance/The level of expressed mRNA in the absence of chemical substance (yeast gene YPR023C, cultured two hours with substance): 0.8
The level of expressed mRNA in the presence of chemical substance/The level of expressed mRNA in the absence of chemical substance (yeast gene YPR037C, mitochondria-located protein gene, cultured two hours with substance): 4.1
level of expressed mRNA in the presence of chemical substance / level in the absence of chemical substance (yeast gene YPR049C, cultured two hours with the chemical substance): 1.5
level of expressed mRNA in the presence of chemical substance / level in the absence of chemical substance (yeast gene YPR146C, cultured two hours with the chemical substance): 0.9
level of expressed mRNA in the presence of chemical substance / level in the absence of chemical substance (yeast gene YPR148C, cultured two hours with the chemical substance): 1.7
level of expressed mRNA in the presence of chemical substance / level in the absence of chemical substance (yeast gene YPR172W, cultured two hours with the chemical substance): 1.5
